Assay results as given in patent publication US11583525B2, “Geranylgeranyltransferase I inhibitor for treatment of a PTEN defective cancer” (H. LEE MOFFITT CANCER CENTER AND RESEARCH INSTITUTE, INC., priority 2017, dated 2023).
Peptide text beside a SMILES is read from it. * marks the point of attachment. Cbz = O=C(OCc1ccccc1)*

Tests used:
Ca2+ mobilization = experiment: Cytosolic Ca2+ mobilization measured with aequorin in NHFs in response to ATP; assay type: cell-based, human; details: NHFs re-stimulated with serum for one hour; ATP stimulation
Experimental: FIGS. 7A, 7B, 7C, 7D, 7E, 7F, 7G, 7H, and 7I show FBXL2 controls Ca2+ mobilization and Ca2+-mediated apoptosis. […] Quantification of three independent experiments is shown and represented as percentage increase compared to EXP cells, which were set as 100%. P values were calculated by one-way ANOVA and multiple-comparisons test. Error bars indicate s.e.m. […] Quantifications and P value analyses was performed as in a. […] On the left, representative traces. On the right, quantification of three independent experiments. P values were calculated by a one-way ANOVA and multiple-comparisons test. Error bars indicate s.e.m. […] Concentrations of cytosolic (7d) and mitochondrial (7e) Ca2+ were measured with the appropriate aequorin in response to agonist stimulation (ATP). […] On the right, quantifications of three independent experiments. P values were calculated by one-way ANOVA and multiple-comparisons test. […] P values were calculated by unpaired t-test. […] Induction of cell death was evaluated after treatment with H2O2 using automated nuclei count analysis of twenty randomly chosen fields. P values were calculated by one-way ANOVA and multiple-comparisons test. […] Left, representative traces showing concentrations of mitochondrial Ca2+ measured with mitochondrial targeted aequorin. Right, quantification of three independent experiments. P values were calculated by one-way ANOVA and multiple-comparisons test. […]

IP3R3 = IP3R3 stability by immunoblotting in NHFs, HeLa and HEK293T cells incubated with GGTi-2418; assay type: cell-based, human; details: HeLa, HEK293T cells, 10-15 μM GGTi-2418, NHFs 30 h then cycloheximide and ATP
Experimental: FIGS. 6A, 6B, 6C, 6D, 6E, 6F, 6G, and 6H that the degradation of IP3R3 is dependent on FBXL2 localization to cell membranes and on the segregase activity of p97. […] Live cell imaging was carried out with an LSM510 confocal microscope using a 63× objective. Scale bars, 10 μm. […] Cells were subsequently harvested at the indicated times for immunoblotting. […] Cells were subsequently harvested for immunoblotting. This experiment was performed once. […] The bracket on the right marks a ladder of bands which, presumably, are ubiquitinated species of IP3R3 that are not degraded when p97 is inhibited. […] Cells were subsequently stimulated with medium containing serum and harvested at the indicated time points for immunoblotting. […] Error bars indicate s.e.m. […] Thus, we propose that, after its FBXL2-mediated ubiquitination, IP3R3 is extracted from cell membranes by the segregase activity of p97 to be degraded by the proteasome. […] 24 h post-transfection, cells were treated with MG132 for 3 h before harvesting for immunoprecipitation and immunoblotting as indicated. This experiment was performed twice. […] Samples were analysed by immunoblotting with the indicated antibodies. […]
Cell culture and transfections. […] All cells grown in culture were periodically monitored for mycoplasma contamination. […]

Row | Structure (SMILES) | serum-mediated decrease in Ca2+ mobilization (Ca2+ mobilization) | IP3R3 stability (IP3R3)
1 | Cc1nc[nH]c1CN1CCN(C(=O)N[C@@H](CC(C)C)C(=O)O)[C@@H](Cc2ccccc2)C1=O [GGTi-2418] | inhibited the serum-mediated decrease in Ca2+ mobilization | stabilizes IP3R3
2 | CC(C)C[C@@H](C=O)NC(=O)[C@H](CC(C)C)NC(=O)[C@H](CC(C)C)NC(=O)OCc1ccccc1 [MG132] (Cbz-Leu-Leu-Leu-aldehyde) | inhibited the serum-mediated decrease in Ca2+ mobilization | 
